From patent US20230049952A1, “METHODS AND COMPOUNDS FOR RESTORING MUTANT P53 FUNCTION” (PMV Pharmaceuticals, Inc., priority 2020, published 2023)

Biological target: BSEP (Homo sapiens, UniProt O95342)
Assay: BSEP inhibition: TCA uptake into BSEP-expressing vesicles
Assay type: in vitro ADME
Conditions: 10 μM test article
Protocol: An assay to measure BSEP-mediated TCA uptake into inside-out BSEP-expressing vesicles was used. […] The reaction was initiated by adding 5 mM ATP (adenosine 5′-triphosphate) as the energy source for BSEP. Negative controls were run in parallel, using 5 mM AMP (adenosine 5′-monophosphate) in place of ATP. The reactions were carried out in 96-well plates incubated in a humidified incubator (37° C. 5% CO2) for 30 minutes. After incubation, the vesicle-associated TCA and free TCA were separated by rapid filtration through a glass-fiber filter plate under vacuum.
All samples were assayed by liquid chromatography-tandem mass spectrometry (LC-MS/MS) using electrospray ionization. Liquid Chromatography was performed using a Thermo BDS Hypersil C18 30×2.1 mm, 3 μm, with guard column. […] The Aqueous Reservoir (A) was 90% water, 10% buffer. The Organic Reservoir (B) was 90% acetonitrile, 10% buffer. The Flow Rate was 700 μL/minute. The Total Run Time for the liquid chromatography was 2.5 minutes. The Autosampler was 20 μL injection volume. The Autosampler Wash was water/methanol/2-propanol: 1/1/1; with 0.2% formic acid. Mass Spectrometry was performed on the PE SCIEX API 4000 instrument. The interface was Turbo Ionspray. The mode was Multiple reaction monitoring. The method was performed over 2.5 minute duration.

[1] = 1 μM TCA, BSEP vesicles, 30 minutes

Chain of BSEP (O95342 whole entry, species assumed): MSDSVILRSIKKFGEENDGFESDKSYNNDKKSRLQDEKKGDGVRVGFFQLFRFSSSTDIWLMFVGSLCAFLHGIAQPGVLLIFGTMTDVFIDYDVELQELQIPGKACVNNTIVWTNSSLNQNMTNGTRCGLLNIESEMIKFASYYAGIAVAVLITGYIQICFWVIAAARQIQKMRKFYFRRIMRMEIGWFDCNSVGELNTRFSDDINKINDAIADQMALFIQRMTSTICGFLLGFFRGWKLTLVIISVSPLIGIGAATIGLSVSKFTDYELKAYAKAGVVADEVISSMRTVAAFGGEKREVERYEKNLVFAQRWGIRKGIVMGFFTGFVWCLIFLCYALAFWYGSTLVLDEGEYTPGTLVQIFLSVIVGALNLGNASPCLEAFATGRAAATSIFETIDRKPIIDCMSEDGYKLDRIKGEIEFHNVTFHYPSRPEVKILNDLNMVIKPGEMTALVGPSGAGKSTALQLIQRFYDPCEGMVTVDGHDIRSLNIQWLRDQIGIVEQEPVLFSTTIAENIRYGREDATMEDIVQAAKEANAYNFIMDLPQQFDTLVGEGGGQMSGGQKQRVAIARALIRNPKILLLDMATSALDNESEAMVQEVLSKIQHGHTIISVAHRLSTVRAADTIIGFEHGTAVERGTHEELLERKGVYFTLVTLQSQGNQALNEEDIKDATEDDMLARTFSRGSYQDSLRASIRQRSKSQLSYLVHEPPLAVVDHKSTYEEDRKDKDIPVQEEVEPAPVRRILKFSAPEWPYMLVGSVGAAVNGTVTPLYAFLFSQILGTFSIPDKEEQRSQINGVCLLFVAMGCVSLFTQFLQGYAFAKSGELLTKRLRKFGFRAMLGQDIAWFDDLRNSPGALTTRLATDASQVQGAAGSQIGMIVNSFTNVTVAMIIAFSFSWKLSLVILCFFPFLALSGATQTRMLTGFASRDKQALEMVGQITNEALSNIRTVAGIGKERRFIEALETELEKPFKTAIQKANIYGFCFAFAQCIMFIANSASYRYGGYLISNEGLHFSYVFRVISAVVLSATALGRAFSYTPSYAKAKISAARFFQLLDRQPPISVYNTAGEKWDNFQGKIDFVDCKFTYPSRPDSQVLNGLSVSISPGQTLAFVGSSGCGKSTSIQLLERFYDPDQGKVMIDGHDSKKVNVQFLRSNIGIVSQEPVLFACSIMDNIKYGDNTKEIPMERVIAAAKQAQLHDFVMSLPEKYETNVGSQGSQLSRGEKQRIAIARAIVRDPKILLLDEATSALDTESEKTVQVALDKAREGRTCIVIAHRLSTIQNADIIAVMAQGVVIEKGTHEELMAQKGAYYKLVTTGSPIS

CCn1c(C#CCNc2ccccc2)cc2cc(CNC3CCN(C)CC3)ccc21 [Compound 1, 1-Anilino-3-{1-ethyl-5-[(1-methyl-4-piperidylamino)methyl]-1H-indol-2-yl}-2-propyne]
BSEP Inhibition Potential Classification: Negative (Percent inhibition <50%: Negative)
TCA Concentration, Cofactor AMP, AVG (1 μM TCA, AMP negative control): 1.97 nM
TCA Concentration, Cofactor AMP, R1 (1 μM TCA, AMP negative control): 1.50 nM
TCA Concentration, Cofactor ATP, AVG [1]: 85.5 nM
TCA Concentration, Cofactor ATP, R1 [1]: 87. nM
BSEP Inhibition Classification (TCA 1 μM): negative
Percent Inhibition (negative values reported as 0): 0%
